Assay results from paper PMC4511415, “Inhibition of ANO1/TMEM16A Chloride Channel by Idebenone and Its Cytotoxicity to Cancer Cell Lines” (PLoS ONE, 2015).

Target: T1, ANO1 (anoctamin 1, TMEM16A) (Homo sapiens, UniProt Q5XXA6)
T1 construct: human ANO1(abc)
T1 sequence (Q5XXA6 1-986): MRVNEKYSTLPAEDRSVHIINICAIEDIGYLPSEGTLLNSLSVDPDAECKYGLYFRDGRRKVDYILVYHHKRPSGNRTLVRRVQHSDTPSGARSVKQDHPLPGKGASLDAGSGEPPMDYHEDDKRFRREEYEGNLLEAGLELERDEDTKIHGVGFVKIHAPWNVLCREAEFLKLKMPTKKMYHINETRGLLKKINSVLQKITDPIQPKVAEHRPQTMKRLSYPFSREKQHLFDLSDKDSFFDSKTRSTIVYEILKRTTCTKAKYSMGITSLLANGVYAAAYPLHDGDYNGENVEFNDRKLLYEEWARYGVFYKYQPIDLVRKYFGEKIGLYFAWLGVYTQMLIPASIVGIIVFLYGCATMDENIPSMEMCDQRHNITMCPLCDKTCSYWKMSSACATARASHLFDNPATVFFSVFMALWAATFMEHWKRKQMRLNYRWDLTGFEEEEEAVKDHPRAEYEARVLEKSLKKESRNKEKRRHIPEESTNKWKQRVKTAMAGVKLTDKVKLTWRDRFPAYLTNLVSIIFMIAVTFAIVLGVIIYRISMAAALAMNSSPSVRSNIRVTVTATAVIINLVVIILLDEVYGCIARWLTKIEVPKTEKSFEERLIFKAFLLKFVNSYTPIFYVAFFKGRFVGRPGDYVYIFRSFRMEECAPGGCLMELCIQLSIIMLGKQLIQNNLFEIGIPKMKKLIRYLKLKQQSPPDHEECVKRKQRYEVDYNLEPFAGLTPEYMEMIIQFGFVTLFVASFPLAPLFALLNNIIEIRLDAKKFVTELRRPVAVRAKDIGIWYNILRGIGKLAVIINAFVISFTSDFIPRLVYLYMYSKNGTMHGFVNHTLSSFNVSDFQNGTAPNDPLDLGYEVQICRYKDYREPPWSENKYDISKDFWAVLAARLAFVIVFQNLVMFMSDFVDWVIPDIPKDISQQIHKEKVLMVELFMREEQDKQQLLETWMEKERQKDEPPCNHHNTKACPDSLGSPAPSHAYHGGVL
Test: apical membrane current (Ussing chamber) in FRT-ANO1 cells; whole-cell patch clamp; YFP iodide influx
Format: cell-based

SMILES: COC1=C(OC)C(=O)C(CCCCCCCCCCO)=C(C)C1=O [idebenone, 2,3-dimethoxy-5-methyl-6-(10-hydroxydecyl)-21,4-benzoquinone]
- IC50: 9.2 µM
